# Reference: article PMC10004634 (PLOS ONE, 2023)
# Where two headings read alike, the source gives them in different places.
# How the values were obtained:
# Experiment in all cases: biochemical
# Design in all cases: KINOMEscan scanMAX competition binding, DNA-tagged kinases, qPCR read-out, percent control at 300 nM
# IKK-epsilon = target: T1, IKK-epsilon (Homo sapiens, UniProt Q14164)
# T1 construct: gene IKBKE
# T1 sequence (Q14164 1-716): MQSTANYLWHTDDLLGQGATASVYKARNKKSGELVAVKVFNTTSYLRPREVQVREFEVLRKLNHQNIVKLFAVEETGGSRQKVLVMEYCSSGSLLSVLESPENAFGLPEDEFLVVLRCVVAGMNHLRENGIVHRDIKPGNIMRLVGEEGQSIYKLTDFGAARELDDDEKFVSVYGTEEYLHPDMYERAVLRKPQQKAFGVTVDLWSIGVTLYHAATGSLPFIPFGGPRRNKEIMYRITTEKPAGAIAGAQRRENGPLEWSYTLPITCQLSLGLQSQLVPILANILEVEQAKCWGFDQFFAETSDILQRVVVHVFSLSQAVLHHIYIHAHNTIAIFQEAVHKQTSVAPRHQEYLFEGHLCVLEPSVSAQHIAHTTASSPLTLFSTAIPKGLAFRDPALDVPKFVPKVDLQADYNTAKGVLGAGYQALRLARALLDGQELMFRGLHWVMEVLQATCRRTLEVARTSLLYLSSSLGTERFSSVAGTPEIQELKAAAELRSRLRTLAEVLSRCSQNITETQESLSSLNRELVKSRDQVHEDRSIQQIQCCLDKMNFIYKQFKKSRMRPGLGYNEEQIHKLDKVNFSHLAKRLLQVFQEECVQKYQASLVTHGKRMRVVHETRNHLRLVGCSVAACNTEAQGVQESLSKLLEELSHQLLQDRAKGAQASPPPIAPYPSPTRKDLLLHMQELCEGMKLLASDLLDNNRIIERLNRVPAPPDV
# FLT3(K663Q) = target: T2, FLT3(K663Q) (Homo sapiens, UniProt P36888, K663Q)
# T2 sequence (P36888 1-993 K663Q): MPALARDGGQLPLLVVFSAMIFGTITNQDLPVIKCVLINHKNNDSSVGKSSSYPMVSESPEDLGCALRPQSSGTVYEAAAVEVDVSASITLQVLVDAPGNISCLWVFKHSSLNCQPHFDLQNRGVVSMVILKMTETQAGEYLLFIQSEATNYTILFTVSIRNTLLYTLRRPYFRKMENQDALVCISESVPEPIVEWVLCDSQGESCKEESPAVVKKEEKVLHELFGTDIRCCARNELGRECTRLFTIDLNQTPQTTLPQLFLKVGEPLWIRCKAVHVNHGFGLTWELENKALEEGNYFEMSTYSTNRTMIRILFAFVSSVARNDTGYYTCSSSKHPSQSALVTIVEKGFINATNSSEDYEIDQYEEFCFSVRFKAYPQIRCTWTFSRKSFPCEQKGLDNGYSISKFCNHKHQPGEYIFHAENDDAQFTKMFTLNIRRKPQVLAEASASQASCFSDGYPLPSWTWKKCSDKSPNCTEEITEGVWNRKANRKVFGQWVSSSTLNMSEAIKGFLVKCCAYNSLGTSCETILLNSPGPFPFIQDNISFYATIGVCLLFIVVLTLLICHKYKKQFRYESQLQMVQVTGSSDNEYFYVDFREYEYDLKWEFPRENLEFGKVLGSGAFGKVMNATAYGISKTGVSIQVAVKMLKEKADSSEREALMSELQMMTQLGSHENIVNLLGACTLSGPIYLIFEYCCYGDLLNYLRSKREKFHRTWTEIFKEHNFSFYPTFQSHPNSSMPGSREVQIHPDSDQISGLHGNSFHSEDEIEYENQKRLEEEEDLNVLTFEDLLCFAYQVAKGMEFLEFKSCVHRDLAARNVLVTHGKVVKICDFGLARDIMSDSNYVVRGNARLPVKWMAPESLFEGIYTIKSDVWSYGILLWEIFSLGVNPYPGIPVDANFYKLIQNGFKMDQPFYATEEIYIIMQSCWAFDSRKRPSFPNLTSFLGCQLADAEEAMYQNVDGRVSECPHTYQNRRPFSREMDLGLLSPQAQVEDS
# BRSK1 = target: T3, BRSK1 (Homo sapiens, UniProt Q8TDC3)
# T3 sequence (Q8TDC3 1-778): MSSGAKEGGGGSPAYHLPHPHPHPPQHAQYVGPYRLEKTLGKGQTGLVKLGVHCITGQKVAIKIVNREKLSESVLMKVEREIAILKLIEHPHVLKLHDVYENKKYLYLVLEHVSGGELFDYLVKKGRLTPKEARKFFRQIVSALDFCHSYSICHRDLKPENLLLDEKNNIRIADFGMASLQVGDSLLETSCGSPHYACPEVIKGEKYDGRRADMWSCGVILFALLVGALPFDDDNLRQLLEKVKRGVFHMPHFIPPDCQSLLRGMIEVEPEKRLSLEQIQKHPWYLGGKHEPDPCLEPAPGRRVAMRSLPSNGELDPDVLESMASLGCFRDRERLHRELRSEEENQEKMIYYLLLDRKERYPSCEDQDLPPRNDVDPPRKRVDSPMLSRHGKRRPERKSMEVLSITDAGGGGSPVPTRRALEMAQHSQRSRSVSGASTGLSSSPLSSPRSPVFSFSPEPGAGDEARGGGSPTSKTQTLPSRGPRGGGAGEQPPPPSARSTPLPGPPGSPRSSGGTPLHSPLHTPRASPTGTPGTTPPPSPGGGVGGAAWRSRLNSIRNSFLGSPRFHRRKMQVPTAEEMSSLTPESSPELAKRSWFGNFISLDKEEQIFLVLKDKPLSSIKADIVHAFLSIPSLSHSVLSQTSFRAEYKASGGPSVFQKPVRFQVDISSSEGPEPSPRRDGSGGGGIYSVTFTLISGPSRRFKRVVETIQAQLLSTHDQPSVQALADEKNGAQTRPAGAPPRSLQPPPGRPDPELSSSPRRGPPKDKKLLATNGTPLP
# [1] = read-out: Percent control / Acalabrutinib
# [2] = read-out: Percent control / Ibrutinib
# [3] = read-out: Percent control / Zanubrutinib
smiles,measurement,setting,value
CC#CC(=O)N1CCC[C@H]1c1nc(-c2ccc(C(=O)Nc3ccccn3)cc2)c2c(N)nccn12 [Acalabrutinib],remaining binding at 0.3 µM,IKK-epsilon; [1],76%
same,remaining binding at 0.3 µM,FLT3(K663Q); [1],87%
same,remaining binding at 0.3 µM,BRSK1; [1],92%
C=CC(=O)N1CCC[C@@H](n2nc(-c3ccc(Oc4ccccc4)cc3)c3c(N)ncnc32)C1 [Ibrutinib],remaining binding at 0.3 µM,IKK-epsilon; [2],83%
same,remaining binding at 0.3 µM,FLT3(K663Q); [2],45%
same,remaining binding at 0.3 µM,BRSK1; [2],72%
CC#CC(=O)N1CC[C@@H](n2c(=O)n(-c3ccc(Oc4ccccc4)cc3)c3c(N)ncnc32)C1 [Tirabrutinib],remaining binding at 0.3 µM,IKK-epsilon; read-out: Percent control / Tirabrutinib,92%
C=CC(=O)N1CCC([C@@H]2CCNc3c(C(N)=O)c(-c4ccc(Oc5ccccc5)cc4)nn32)CC1 [Zanubrutinib],remaining binding at 0.3 µM,IKK-epsilon; [3],100%
same,remaining binding at 0.3 µM,FLT3(K663Q); [3],61%
same,remaining binding at 0.3 µM,BRSK1; [3],92%
